Results from patent US9499530B2 (HANGZHOU MINSHENG INSTITUTES FOR PHARMA RESEARCH, priority 2011, dated 2016).
“Also recorded” adds a separate entry of the source.

What was measured:
NCI-H1975 xenograft = test: Growth inhibition of NCI-H1975 xenograft in nude mice; type: in vivo; conditions: for T/C (%) / Tumor volume (mm^3) D 28: 5 consecutive days weekly for four weeks, D 28; for activity against NC1-H1975 (in words): tumor line with gene mutation, resistant to lapatinib
Protocol: Administration route: intragastric administration. Administration volume: 0.1 ml/10 g. Administration and frequency: administrating for 5 consecutive days and suspending administration for two days weekly for four weeks. Observation time: continuous observation for 28 days after starting administration. The tumor volume was measured twice a week. At the end of the experiment, the animals were sacrificed, weighed and photographed. Statistical method: SPSS 10.0 statistical software package, one-factor analysis of variance.

[1] = tested on: human lung cancer A549 xenograft; test: Growth inhibition of A549 xenograft in nude mice; type: in vivo; conditions: for TV (mm^3) End / TV (mm^3) Start / T/C (%): A549 xenograft; for TV (mm^3) End / TV (mm^3) Start / Weight (g) End / Weight (g) Start / T/C (%): 200 mg/kg intragastric; for TV (mm^3) End / Weight (g) End / T/C (%): 5 times per week for four weeks; for TV (mm^3) Start / Weight (g) Start: start of dosing; for Weight (g) End / Weight (g) Start: nude mice with A549 xenograft; for T/C (%): relative tumor growth ratio
Source text: Objective of the test: Determining the inhibition of some compounds of the present invention to the growth of human lung cancer A549 transplanted into nude mice and the action intensity thereof.
1. Human lung cancer A549 xenograft in nude mice, which was set up by subcutaneously transplantion of the human lung cancer A549 cell lines into right axillary fossa of nude mice. The amount of inoculation is 2×10^6 cells/mouse. Xenograft inoculated into the nude mice was passaged for 3 generations before use.
2. The solvent used in the experiments is: 0.5% of hydroxypropylmethyl cellulose and 0.1% of Tween-80.
3. Vigorous growing tumor tissues were selected to be chopped into approximately 1 mm^3. Under sterile conditions, the tumor tissue blocks were subcutaneously transplanted into right axillary fossa of nude mice. The diameters of the xenograft in nude mice were measured with a vernier caliper. When tumors reached approximately 100-300 mm^3 in size, the animals were randomly divided into groups, wherein there are 12 animals in solvent control group, and 6 animals per group in the other groups. […] The administered dosages were both 200 mg/kg, 5 times per week for consecutive four weeks. The diameters of the tumors were measured twice per week. The negative control group was intragastricly administrated the same amount of solvent. After the experiment, the mice were sacrificed. The tumors were surgically stripped and weighed. The tumor volume (TV) was calculated by the following equation:
[formula] in which a and b represents for the length and the width respectively.
According to the measured results, the relative tumor volume (RTV) was calculated. The calculation equation was: RTV=Vt/V0, wherein V0 is the tumor volume measured during cage administration (i.e. d0), Vt is the tumor volume of each measurement. The evaluation index of anti-tumor activity was the relative tumor growth ratio T/C (%), which was calculated by the following equation: […]
TRTV: treatment group's RTV; CRTV: negative control group's RTV.

[2] = target: EGFR (Epidermal Growth Factor Receptor 1) (Homo sapiens, UniProt P00533); test: ELISA protein tyrosine kinase inhibition, EGFR; type: biochemical; conditions: for IC50: ELISA, Poly(Glu, Tyr) 4:1 substrate, ATP 5 μM, test samples at 10-5 mol/l, read-out: EGFR inhibitory activity (IC50 class)
Source text: (§1) Determining the Effect of Test Samples at a Concentration of 10-5 Mol/l on the Activity of the Substrate Phosphoryation Catalyzed by EGFR (Epidermal Growth Factor Receptor 1), ErbB-2 (Epidermal Growth Factor Receptor 2), ErbB-4, KDR (Vascular Endothelial Growth Factor Receptor 2) Protein Tyrosine Kinases at Molecular Level
(§2) Enzyme-Linked Immunosorbent Assay (ELISA)
(§3) Main instrument: wavelength-tunable microplate reader (VERSAmax).
(§4) Main reagents: kinase reaction substrate Poly(Glu, Tyr) 4:1 from Sigma; anti-phosphotyrosine monoclonal antibody PY99 from Santa Cruz; horseradish peroxidase-labeled goat anti-mouse IgG from Calbiochem; ATP, DTT, OPD from Amresco, and ELISA plate from Corning.
(§5) Poly(Glu, Tyr)4:1 as an enzyme substrate was diluted by potassium ion-free PBS into 20 μg/ml, and an ELISA plate was coated and subjected to reaction for 12-16 h at 37° C. After the liquid in wells was removed, the plate was washed three time by T-PBS, 5 min for each time. The ELISA plate was then dried in an oven at 37° C. The coated wells were added with the test samples: the test samples were prepared for a stock solution with a concentration of 1×10^−2M in DMSO. The aliquot solution was stored at −20° C., and diluted to the desired concentration with reaction buffer before use. The resulting solution was added into the wells so that the final concentration of 10-5 mol/l in 100 μL reaction system can be obtained. At the same time, a positive control well was set up and a positive control compound Su11248 was added. ATP and test tyrosine kinases were added: ATP solution diluted with reaction buffer was added (the final concentration of ATP is 5 μM). Finally, the test tyrosine kinases solution diluted with reaction buffer was added. The total volume of the reaction system was […]. Meanwhile, a negative control well and a control well without enzyme were set up. The reaction system was placed in a wet box, and shaked for 1 hour at 37° C., shielding from light. After the reaction was complete, the plate was washed by T-PBS three times. Antibody PY99 was added at 100 μL/well; and the plate was shaked for 30 min at 37° C. After the reaction was complete, the plate was washed with T-PBS three times. Horseradish peroxidase-labeled goat anti-mouse IgG was added at 100 μL/well, and the plate was shaked for 30 min at 37° C. The plate was washed with T-PBS three times. OPD developing liquid was added at 100 μL/well, and reacted for 1-10 min at room temperature, shielding from light. 50 μL of 2 M H2SO4 was added to stop the reaction. A492 value was determined using wavelength-tunable microplate reader. The inhibition ratio of the samples can be calculated by the following equation: […]

[3] = target: ErbB-2 (Epidermal Growth Factor Receptor 2) (Homo sapiens, UniProt P04626); test: ELISA protein tyrosine kinase inhibition, ErbB-2; type: biochemical; conditions: Poly(Glu, Tyr) 4:1 substrate, ATP 5 μM, test samples at 10-5 mol/l, read-out: ErbB2 inhibitory activity (IC50 class)
Source text: as §1, §2, §3, §4, §5

[4] = target: KDR (Vascular Endothelial Growth Factor Receptor 2) (Homo sapiens, UniProt P35968); test: ELISA protein tyrosine kinase inhibition, KDR; type: biochemical; conditions: for IC50: ELISA, Poly(Glu, Tyr) 4:1 substrate, ATP 5 μM, test samples at 10-5 mol/l, read-out: KDR inhibitory activity (IC50 class)
Chain of KDR (Vascular Endothelial Growth Factor Receptor 2) (P35968 20-1356): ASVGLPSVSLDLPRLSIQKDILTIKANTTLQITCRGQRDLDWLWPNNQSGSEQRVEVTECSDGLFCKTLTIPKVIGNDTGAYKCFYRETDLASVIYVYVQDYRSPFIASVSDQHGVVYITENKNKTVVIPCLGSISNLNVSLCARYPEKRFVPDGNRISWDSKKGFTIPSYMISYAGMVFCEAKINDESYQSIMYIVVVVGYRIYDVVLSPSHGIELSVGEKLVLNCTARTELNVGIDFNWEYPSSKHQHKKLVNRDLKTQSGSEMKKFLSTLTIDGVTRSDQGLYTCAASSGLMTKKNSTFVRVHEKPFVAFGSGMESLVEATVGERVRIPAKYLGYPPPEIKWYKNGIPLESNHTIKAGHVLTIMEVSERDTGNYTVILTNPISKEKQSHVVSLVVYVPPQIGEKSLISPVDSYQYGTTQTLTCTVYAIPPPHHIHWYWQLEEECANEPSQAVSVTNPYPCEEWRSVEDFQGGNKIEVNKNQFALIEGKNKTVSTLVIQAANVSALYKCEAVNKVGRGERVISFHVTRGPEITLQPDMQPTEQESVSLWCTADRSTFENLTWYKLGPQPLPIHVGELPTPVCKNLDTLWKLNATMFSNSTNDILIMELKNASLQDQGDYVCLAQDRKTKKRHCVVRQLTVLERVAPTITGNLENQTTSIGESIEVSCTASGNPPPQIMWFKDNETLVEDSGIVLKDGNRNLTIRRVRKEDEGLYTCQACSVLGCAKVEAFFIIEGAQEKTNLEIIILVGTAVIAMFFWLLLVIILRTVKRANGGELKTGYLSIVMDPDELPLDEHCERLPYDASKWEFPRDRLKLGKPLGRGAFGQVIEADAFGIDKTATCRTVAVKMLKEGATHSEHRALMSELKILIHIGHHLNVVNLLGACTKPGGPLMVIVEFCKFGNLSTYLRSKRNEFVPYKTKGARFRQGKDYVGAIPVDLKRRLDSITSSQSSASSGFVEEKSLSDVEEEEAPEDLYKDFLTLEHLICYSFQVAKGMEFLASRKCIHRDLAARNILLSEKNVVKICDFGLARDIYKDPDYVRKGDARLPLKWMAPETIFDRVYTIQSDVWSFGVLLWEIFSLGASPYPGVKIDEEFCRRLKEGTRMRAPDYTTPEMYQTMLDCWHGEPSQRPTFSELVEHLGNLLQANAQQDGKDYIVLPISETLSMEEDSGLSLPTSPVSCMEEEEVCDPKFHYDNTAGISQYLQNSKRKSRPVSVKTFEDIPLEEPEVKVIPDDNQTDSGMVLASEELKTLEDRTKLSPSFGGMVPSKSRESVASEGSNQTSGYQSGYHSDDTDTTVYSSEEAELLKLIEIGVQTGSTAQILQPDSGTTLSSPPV
Source text: as §1, §2, §3, §4, §5

ErbB-4 = ErbB-4 (Homo sapiens, UniProt Q15303); test: ELISA protein tyrosine kinase inhibition, ErbB-4; type: biochemical; conditions: for IC50: ELISA, Poly(Glu, Tyr) 4:1 substrate, ATP 5 μM, test samples at 10-5 mol/l, read-out: ErbB4 inhibitory activity (IC50 class)
Chain of ErbB-4 (Q15303 26-1308): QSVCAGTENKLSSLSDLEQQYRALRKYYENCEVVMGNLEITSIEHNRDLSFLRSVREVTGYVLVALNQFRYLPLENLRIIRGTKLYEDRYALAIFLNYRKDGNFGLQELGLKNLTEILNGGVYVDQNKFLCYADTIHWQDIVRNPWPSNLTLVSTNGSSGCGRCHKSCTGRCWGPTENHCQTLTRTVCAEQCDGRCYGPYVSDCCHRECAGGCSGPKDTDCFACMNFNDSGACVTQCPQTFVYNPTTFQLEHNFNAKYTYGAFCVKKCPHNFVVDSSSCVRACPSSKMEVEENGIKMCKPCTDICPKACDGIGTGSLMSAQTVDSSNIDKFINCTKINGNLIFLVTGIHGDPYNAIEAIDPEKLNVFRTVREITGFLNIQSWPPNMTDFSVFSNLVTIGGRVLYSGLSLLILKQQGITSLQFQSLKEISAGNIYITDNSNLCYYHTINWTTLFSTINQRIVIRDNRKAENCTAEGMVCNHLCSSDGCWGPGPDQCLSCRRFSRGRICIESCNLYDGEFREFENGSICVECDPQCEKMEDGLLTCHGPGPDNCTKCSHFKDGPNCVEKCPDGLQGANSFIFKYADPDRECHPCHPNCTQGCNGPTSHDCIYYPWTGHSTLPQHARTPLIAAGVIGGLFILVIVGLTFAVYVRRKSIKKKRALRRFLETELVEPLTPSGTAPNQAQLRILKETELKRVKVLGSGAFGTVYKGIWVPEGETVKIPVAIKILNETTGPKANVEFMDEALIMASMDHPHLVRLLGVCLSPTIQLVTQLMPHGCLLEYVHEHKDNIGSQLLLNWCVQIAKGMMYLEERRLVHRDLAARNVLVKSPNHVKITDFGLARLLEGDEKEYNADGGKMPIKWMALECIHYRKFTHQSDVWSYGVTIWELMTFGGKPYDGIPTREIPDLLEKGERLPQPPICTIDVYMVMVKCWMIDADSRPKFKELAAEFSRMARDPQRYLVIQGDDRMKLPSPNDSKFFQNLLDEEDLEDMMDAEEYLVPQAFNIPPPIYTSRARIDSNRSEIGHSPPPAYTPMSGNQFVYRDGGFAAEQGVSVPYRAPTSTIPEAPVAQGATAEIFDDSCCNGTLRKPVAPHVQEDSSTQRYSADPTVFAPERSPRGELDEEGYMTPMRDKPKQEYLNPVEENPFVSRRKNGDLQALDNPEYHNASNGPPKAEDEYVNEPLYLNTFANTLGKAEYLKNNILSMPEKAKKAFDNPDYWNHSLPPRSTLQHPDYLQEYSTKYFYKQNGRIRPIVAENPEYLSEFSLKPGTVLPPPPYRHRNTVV
Source text: as §1, §2, §3, §4, §5

[5] = NC1-H1975 xenograft, intragastric

Compound	IC50 [2] [µM]	IC50 [3] [µM]	IC50 [4] [µM]	IC50 (ErbB-4) [µM]	inhibitory activity against EGFR (in words) [2]	inhibition of c-ErbB4/HER4 (in words) (ErbB-4)	T/C (%) (NCI-H1975 xenograft; [5])	Tumor volume (mm^3) D 28 (NCI-H1975 xenograft; [5])	activity against NC1-H1975 (in words) (NCI-H1975 xenograft)	TV (mm^3) End [1]	TV (mm^3) Start [1] [mm^3]	Weight (g) End [1] [g]	Weight (g) Start [1] [g]	T/C (%) [1] [%]	Tumor volume (mm^3) D 0 (NCI-H1975 xenograft; NC1-H1975 xenograft, intragastric, D 0) [mm^3]	growth inhibition of human lung cancer A549 compared with positive control lapatinib (in words) ([1]; xenograft in nude mice, 200 mg/kg)	inhibitory activity against KDR (in words) [4]
COc1cc2ncnc(Nc3ccc(F)c(Cl)c3)c2cc1OCCCN1CCOCC1 [Gefitinib]							87.89%	2164.44 ± 1064.85 mm^3	almost no activity								
CS(=O)(=O)CCNCc1ccc(-c2ccc3ncnc(Nc4ccc(OCc5cccc(F)c5)c(Cl)c4)c3c2)o1 [Lapatinib, lapatinib, reference compound]							104.26%	2420.50 ± 1405.01 mm^3		943.2 ± 225.7^▴ mm^3	153.6 ± 64.8	26.3 ± 3.3	24.1 ± 2.9				
OCC(CO)NCc1ccc(-c2ccc3ncnc(Nc4ccc(OCc5cccc(F)c5)c(Cl)c4)c3c2)o1 [MS6·dimethanesulfonate, N-(3-chloro-4-((3-fluorobenzyl)oxy)phenyl)-6-((5-(2-(1,3-dihydroxypropyl)amino)methyl)-2-furyl)-4-quinazolinamine]	< 10	< 10	< 10	< 10						844.5 ± 240.3^▴ mm^3	156.9 ± 64.5	25.2 ± 1.4	24.9 ± 1.3	39.3			
OCCCNCc1ccc(-c2ccc3ncnc(Nc4ccc(OCc5cccc(F)c5)c(Cl)c4)c3c2)o1 [MS42·di-p-toluenesulfonate, N-(3-chloro-4-((3-fluorobenzyl)oxy)phenyl)-6-(5-(((3-hydroxypropyl)amino)methyl)-2-furyl)-4-quinazolinamine]	< 10	< 10	< 10	< 10													

The next lines start with results.

IC50 [2] [µM]	IC50 [3] [µM]	IC50 [4] [µM]	IC50 (ErbB-4) [µM]	inhibitory activity against EGFR (in words) [2]	inhibition of c-ErbB4/HER4 (in words) (ErbB-4)	Compound	T/C (%) (NCI-H1975 xenograft; [5])	Tumor volume (mm^3) D 28 (NCI-H1975 xenograft; [5])	activity against NC1-H1975 (in words) (NCI-H1975 xenograft)	TV (mm^3) End [1]	TV (mm^3) Start [1] [mm^3]	Weight (g) End [1] [g]	Weight (g) Start [1] [g]	T/C (%) [1] [%]	Tumor volume (mm^3) D 0 (NCI-H1975 xenograft; NC1-H1975 xenograft, intragastric, D 0) [mm^3]	growth inhibition of human lung cancer A549 compared with positive control lapatinib (in words) ([1]; xenograft in nude mice, 200 mg/kg)	inhibitory activity against KDR (in words) [4]
< 10	< 10	< 10	< 10			OCCNCc1ccc(-c2ccc3ncnc(Nc4ccc(OCc5cccc(F)c5)c(Cl)c4)c3c2)o1 [MS27·dimethanesulfonate, N-(3-chloro-4-((3-fluorobenzyl)oxy)phenyl)-6-(5-(((2-hydroxyethyl)amino)methyl)-2-furyl)-4-quinazolinamine]	49.8^★ %	1214.25 ± 944.16^★ mm^3	good activity	775.6 ± 215.4^▴ mm^3	155.3 ± 71.2	25.6 ± 2.2	25.0 ± 2.7	36.4	97.06 ± 38.91		
< 10	< 10	< 10	< 10			OCC(O)CNCc1ccc(-c2ccc3ncnc(Nc4ccc(OCc5cccc(F)c5)c(Cl)c4)c3c2)o1 (centres unmarked) [MS31·dimethanesulfonate, N-(3-chloro-4-((3-fluorobenzyl)oxy)phenyl)-6-(5-((1-(2,3-dihydroxypropyl)amino)methyl)-2-furyl)-4-quinazolinamine]											
< 10	< 10	< 10	< 10			O=C(O)CCC(NCc1ccc(-c2ccc3ncnc(Nc4ccc(OCc5cccc(F)c5)c(Cl)c4)c3c2)o1)C(=O)O (centres unmarked) [MS 23, N-(3-chloro-4-((3-fluorobenzyl)oxy)phenyl)-6-(5-(((1,3-dicarboxypropyl)amino)methyl)-2-furyl)-4-quinazolinamine]				804.3 ± 230.3^▴ mm^3	153.5 ± 74.8	25.7 ± 2.0	25.3 ± 1.5	38.2		better effective inhibition; also recorded: better growth inhibition effect	better inhibitory activity; also recorded: higher inhibitory activity
< 10	> 10	> 10	< 10	better inhibitory activity	very good inhibition	N-(3-chloro-4-((3-fluorobenzyl)oxy)phenyl)-6-(5-((morpholinyl)methyl)-2-thienyl)-4-quinazolinamine [MS 33]											
